Source: publication PMC5814754, “Quantitative, Wide-Spectrum Kinase Profiling in Live Cells for Assessing the Effect of Cellular ATP on Target Engagement” (Cell Chemical Biology, 2018)

Columns and labels:
Assay in all cases: NanoBRET single-dose fractional occupancy profiling of kinase/Nluc library in live HEK293 cells (Table S1)
Format in all cases: binding
Parameters in all cases: Occupancy, % Replicate 1 / Occupancy, % Replicate 2: unit of the concentration uncertain
178 full-length kinases [1] = biological target: 178 full-length kinases (Homo sapiens, UniProt Q16832); details: DDR2, Nluc C, probe 6 at 0.1 (unit uncertain)
178 full-length kinases [2] = biological target: 178 full-length kinases (Homo sapiens, UniProt Q13627); details: DYRK1A, Nluc N, probe 5 at 1 (unit uncertain)
178 full-length kinases [3] = biological target: 178 full-length kinases (Homo sapiens, UniProt P42681); details: TXK (NP_003319), Nluc orientation C, probe 6 at 0.1 (unit uncertain)
178 full-length kinases (Homo sapiens, UniProt P42681), sequence (P42681 whole entry): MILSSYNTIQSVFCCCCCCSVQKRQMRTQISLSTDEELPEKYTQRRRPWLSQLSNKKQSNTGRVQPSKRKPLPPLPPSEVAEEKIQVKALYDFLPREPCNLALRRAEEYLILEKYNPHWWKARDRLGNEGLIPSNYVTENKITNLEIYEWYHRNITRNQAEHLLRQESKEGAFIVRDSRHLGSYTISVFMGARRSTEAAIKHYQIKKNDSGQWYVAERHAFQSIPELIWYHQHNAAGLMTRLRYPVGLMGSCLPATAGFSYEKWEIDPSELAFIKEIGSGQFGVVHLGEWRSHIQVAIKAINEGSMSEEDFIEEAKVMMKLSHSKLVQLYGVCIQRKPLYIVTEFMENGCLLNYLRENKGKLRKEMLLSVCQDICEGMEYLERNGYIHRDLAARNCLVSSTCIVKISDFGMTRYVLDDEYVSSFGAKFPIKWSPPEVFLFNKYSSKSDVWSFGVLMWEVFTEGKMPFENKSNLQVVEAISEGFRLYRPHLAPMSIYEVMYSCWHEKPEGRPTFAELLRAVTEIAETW

178 full-length kinases [4] = biological target: 178 full-length kinases (Homo sapiens, UniProt P42685); details: FRK, Nluc C, probe 6 at 0.5 (unit uncertain)
178 full-length kinases [5] = biological target: 178 full-length kinases (Homo sapiens, UniProt Q9P286); details: PAK7, Nluc C, probe 5 at 1 (unit uncertain)
178 full-length kinases (Homo sapiens, UniProt Q9P286), sequence (Q9P286 whole entry): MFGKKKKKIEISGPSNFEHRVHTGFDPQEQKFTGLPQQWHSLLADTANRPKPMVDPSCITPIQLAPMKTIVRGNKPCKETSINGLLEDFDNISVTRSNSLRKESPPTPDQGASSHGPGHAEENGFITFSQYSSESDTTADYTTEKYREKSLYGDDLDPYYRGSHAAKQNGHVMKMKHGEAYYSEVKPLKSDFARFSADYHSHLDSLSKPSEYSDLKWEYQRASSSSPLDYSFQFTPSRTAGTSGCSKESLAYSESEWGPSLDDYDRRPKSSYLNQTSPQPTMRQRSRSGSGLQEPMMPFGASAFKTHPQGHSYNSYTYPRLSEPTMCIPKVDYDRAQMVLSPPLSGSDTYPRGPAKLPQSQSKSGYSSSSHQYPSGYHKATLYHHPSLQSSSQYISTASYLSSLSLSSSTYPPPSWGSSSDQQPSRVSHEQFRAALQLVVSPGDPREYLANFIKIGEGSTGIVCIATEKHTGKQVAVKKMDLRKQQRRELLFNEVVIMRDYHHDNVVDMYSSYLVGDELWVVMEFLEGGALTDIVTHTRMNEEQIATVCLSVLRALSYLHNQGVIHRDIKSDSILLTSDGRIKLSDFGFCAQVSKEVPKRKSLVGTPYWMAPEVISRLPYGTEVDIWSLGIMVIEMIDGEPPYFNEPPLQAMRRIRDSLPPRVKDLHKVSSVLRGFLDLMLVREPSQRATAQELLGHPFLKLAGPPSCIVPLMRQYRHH

178 full-length kinases [6] = biological target: 178 full-length kinases (Homo sapiens, UniProt Q16539); details: MAPK14, Nluc C, probe 6 at 0.1 (unit uncertain)
178 full-length kinases (Homo sapiens, UniProt Q16539), sequence (Q16539 whole entry): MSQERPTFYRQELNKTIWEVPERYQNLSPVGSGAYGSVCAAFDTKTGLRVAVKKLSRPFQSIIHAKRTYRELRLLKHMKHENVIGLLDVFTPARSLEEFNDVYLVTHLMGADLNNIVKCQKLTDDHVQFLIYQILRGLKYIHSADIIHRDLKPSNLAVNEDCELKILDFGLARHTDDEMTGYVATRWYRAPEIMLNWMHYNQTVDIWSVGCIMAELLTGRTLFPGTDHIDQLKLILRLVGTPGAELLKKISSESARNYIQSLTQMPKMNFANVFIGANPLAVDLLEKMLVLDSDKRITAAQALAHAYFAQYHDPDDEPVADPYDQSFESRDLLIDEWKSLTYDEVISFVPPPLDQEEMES

178 full-length kinases [7] = biological target: 178 full-length kinases (Homo sapiens, UniProt P51817); details: PRKX, Nluc C, probe 5 at 1 (unit uncertain)
178 full-length kinases [8] = biological target: 178 full-length kinases (Homo sapiens, UniProt Q02156); details: PRKCE, Nluc C, probe 5 at 1 (unit uncertain)
178 full-length kinases (Homo sapiens, UniProt Q02156), sequence (Q02156 whole entry): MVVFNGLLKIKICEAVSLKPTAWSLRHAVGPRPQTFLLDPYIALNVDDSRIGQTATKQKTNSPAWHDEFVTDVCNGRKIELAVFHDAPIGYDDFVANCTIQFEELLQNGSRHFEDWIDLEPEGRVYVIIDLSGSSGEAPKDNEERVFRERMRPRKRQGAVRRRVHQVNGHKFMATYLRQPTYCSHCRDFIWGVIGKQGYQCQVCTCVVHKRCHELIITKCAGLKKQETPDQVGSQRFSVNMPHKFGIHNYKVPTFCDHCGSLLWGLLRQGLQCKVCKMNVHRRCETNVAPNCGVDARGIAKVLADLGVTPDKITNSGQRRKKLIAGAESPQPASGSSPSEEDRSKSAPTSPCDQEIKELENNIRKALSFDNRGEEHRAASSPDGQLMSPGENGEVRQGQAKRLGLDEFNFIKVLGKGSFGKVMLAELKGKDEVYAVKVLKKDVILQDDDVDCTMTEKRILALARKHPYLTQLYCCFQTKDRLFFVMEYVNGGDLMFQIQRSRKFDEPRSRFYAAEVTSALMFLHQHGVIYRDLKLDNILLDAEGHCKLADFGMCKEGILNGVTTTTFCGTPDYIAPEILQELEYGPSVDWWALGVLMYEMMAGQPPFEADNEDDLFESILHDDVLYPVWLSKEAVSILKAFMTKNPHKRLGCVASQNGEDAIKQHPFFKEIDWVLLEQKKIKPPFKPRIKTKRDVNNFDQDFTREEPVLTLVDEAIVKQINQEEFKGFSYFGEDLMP

178 full-length kinases [9] = biological target: 178 full-length kinases (Homo sapiens, UniProt Q9NYY3); details: PLK2, Nluc N, probe 5 at 1 (unit uncertain)
178 full-length kinases (Homo sapiens, UniProt Q9NYY3), sequence (Q9NYY3 whole entry): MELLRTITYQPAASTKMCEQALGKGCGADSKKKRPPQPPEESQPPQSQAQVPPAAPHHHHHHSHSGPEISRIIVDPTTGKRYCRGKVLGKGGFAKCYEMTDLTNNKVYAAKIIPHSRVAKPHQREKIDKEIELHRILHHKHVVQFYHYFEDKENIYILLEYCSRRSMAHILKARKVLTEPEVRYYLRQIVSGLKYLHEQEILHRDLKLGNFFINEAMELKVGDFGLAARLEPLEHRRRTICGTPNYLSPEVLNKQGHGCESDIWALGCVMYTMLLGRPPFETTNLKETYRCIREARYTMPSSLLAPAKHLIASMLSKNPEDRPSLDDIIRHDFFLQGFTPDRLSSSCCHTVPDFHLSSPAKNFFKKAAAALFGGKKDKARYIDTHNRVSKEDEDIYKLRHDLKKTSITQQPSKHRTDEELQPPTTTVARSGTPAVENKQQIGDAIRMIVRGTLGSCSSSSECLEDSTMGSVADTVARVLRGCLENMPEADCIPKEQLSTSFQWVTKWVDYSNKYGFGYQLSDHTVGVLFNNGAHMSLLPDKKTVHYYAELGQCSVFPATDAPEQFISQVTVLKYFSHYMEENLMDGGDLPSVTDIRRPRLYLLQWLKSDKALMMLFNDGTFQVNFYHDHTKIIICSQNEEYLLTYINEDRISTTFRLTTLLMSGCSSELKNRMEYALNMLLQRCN

178 full-length kinases [10] = biological target: 178 full-length kinases (Homo sapiens, UniProt Q13237); details: PRKG2, Nluc C, probe 5 at 1 (unit uncertain)
178 full-length kinases [11] = biological target: 178 full-length kinases (Homo sapiens, UniProt O75676); details: RPS6KA4 (NP_001287731), Nluc orientation N, probe 5 at 0.1 (unit uncertain); replicate 1
178 full-length kinases [12] = biological target: 178 full-length kinases (Homo sapiens, UniProt P29597); details: TYK2 (NP_003322), Nluc orientation C, probe 5 at 1 (unit uncertain); replicate 1
178 full-length kinases [13] = biological target: 178 full-length kinases (Homo sapiens, UniProt Q8IYT8); details: ULK2 (NP_001136082), Nluc orientation N, probe 5 at 1 (unit uncertain)
178 full-length kinases [14] = biological target: 178 full-length kinases (Homo sapiens, UniProt P27037); details: ACVR2A, Nluc C, probe 2 at 1 (unit uncertain)
178 full-length kinases (Homo sapiens, UniProt P27037), sequence (P27037 20-513): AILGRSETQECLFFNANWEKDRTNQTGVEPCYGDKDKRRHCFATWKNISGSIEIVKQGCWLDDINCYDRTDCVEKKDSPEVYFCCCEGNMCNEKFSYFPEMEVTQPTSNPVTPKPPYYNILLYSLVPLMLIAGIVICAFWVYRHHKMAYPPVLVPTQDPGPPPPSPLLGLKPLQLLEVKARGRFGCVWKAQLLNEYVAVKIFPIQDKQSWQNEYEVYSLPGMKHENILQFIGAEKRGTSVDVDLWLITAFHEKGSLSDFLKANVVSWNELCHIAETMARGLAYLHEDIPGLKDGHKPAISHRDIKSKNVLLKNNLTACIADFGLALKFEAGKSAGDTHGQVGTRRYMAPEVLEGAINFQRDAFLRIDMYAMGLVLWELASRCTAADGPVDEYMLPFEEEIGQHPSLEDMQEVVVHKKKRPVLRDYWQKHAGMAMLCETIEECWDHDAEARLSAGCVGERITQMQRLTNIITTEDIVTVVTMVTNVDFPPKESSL

178 full-length kinases [15] = biological target: 178 full-length kinases (Homo sapiens, UniProt O75460); details: ERN1, Nluc C, probe 5 at 1 (unit uncertain)
178 full-length kinases (Homo sapiens, UniProt O75460), sequence (O75460 19-977): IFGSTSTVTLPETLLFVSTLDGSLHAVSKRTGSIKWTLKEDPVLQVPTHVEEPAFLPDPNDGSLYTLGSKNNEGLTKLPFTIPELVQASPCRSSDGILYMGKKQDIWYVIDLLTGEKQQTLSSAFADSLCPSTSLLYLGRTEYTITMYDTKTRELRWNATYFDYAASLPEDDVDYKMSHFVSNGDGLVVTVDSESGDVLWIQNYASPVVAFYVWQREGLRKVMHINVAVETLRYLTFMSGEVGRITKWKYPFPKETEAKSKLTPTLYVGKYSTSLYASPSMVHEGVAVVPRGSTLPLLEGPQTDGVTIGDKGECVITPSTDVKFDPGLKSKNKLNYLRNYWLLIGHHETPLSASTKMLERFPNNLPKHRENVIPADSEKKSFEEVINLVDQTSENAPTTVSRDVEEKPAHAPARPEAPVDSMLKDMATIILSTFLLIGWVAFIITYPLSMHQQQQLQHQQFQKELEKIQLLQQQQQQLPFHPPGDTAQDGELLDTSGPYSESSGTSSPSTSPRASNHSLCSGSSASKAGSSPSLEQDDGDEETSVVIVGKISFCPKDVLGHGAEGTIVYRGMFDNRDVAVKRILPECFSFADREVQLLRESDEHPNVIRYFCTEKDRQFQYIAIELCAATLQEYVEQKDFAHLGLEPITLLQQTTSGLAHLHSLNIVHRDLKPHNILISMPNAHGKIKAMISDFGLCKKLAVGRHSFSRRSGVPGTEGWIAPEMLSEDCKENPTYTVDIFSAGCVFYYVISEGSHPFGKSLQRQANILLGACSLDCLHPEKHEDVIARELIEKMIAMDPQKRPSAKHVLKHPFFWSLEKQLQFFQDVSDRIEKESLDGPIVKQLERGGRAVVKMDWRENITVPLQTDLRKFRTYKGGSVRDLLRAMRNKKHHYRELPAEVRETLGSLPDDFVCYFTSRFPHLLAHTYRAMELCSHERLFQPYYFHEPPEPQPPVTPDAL

178 full-length kinases [16] = biological target: 178 full-length kinases (Homo sapiens, UniProt P09769); details: FGR, Nluc N, probe 6 at 0.5 (unit uncertain)
178 full-length kinases [17] = biological target: 178 full-length kinases (Homo sapiens, UniProt P53779); details: JNK3, Nluc C, probe 5 at 1 (unit uncertain)
178 full-length kinases [18] = biological target: 178 full-length kinases (Homo sapiens, UniProt Q15831); details: STK11 (NP_000446), Nluc orientation N, probe 5 at 1 (unit uncertain)
178 full-length kinases (Homo sapiens, UniProt Q15831), sequence (Q15831 whole entry): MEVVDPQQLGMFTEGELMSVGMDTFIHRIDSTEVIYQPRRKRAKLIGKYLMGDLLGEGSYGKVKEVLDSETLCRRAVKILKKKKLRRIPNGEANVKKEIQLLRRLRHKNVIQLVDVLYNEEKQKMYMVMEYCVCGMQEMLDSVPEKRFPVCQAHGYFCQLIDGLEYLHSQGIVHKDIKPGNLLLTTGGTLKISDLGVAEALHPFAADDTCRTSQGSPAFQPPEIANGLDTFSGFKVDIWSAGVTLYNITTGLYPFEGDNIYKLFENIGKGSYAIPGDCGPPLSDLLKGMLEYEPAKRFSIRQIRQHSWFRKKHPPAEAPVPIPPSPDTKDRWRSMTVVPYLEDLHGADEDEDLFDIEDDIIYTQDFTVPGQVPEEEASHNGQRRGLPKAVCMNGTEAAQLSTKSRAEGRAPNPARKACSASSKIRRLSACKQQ

C[C@@H](Oc1cc(-c2cnn(C3CCNCC3)c2)cnc1N)c1c(Cl)ccc(F)c1Cl [Crizotinib]
No Binding: Occupancy, % Replicate 1 (178 full-length kinases [1]) | Occupancy, % Replicate 1 (178 full-length kinases [2]) | Occupancy, % Replicate 2 (178 full-length kinases [2]) | Occupancy, % Replicate 1 (178 full-length kinases [3]; replicate 1) | Occupancy, % Replicate 2 (178 full-length kinases [3]; replicate 2) | Occupancy, % Replicate 2 (178 full-length kinases [4]) | Occupancy, % Replicate 1 (178 full-length kinases [5]) | Occupancy, % Replicate 2 (178 full-length kinases [5]) | Occupancy, % Replicate 1 (178 full-length kinases [6]) | Occupancy, % Replicate 2 (178 full-length kinases [6]) | Occupancy, % Replicate 1 (178 full-length kinases [7]) | Occupancy, % Replicate 2 (178 full-length kinases [7]) | Occupancy, % Replicate 1 (178 full-length kinases [8]) | Occupancy, % Replicate 2 (178 full-length kinases [8]) | Occupancy, % Replicate 1 (178 full-length kinases [9]) | Occupancy, % Replicate 2 (178 full-length kinases [9]) | Occupancy, % Replicate 2 (178 full-length kinases [10]) | Occupancy, % Replicate 1 (178 full-length kinases [11]) | Occupancy, % Replicate 1 (178 full-length kinases [12]) | Occupancy, % Replicate 1 (178 full-length kinases [13]; replicate 1) | Occupancy, % Replicate 2 (178 full-length kinases [13]; replicate 2) | Occupancy, % Replicate 1 (178 full-length kinases [14]) | Occupancy, % Replicate 2 (178 full-length kinases [14]) | Occupancy, % Replicate 1 (178 full-length kinases [15]) | Occupancy, % Replicate 2 (178 full-length kinases [15]) | Occupancy, % Replicate 2 (178 full-length kinases [16]) | Occupancy, % Replicate 1 (178 full-length kinases [17]) | Occupancy, % Replicate 2 (178 full-length kinases [17]) | Occupancy, % Replicate 1 (178 full-length kinases [18]; replicate 1) | Occupancy, % Replicate 2 (178 full-length kinases [18]; replicate 2)
